The values below come from ChEMBL document CHEMBL4152259, “Benzoxazinone-containing 3,5-dimethylisoxazole derivatives as BET bromodomain inhibitors for treatment of castration-resistant prostate cancer” (Eur J Med Chem, 2018).

The target of series [1] is T1, Bromodomain-containing protein 4 (Homo sapiens, UniProt O60885).
Description: Binding affinity to His6-tagged human BRD4 bromodomain-2 expressed in Escherichia coli BL21(DE3) assessed as change in melting temperature at 200 uM by SYPRO orange dye based fluorescence assay
Series [2] has as its target T2, Bromodomain-containing protein 9 (Homo sapiens) (UniProt Q9H8M2).
T2 sequence (whole entry): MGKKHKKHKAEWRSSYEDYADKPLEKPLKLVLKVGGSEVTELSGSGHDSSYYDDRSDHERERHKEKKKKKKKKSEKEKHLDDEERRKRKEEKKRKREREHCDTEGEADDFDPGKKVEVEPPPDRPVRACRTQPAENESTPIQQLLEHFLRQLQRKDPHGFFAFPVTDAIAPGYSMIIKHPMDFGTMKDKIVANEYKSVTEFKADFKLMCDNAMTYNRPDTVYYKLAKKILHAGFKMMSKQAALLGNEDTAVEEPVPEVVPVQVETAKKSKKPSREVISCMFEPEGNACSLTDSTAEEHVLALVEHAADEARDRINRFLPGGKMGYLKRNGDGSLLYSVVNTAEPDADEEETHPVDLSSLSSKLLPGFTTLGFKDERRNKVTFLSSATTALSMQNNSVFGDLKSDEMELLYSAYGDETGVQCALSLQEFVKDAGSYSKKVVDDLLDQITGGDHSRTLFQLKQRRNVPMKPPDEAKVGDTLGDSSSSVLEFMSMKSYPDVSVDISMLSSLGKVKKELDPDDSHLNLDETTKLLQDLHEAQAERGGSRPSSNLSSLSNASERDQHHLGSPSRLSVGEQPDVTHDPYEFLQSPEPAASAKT
The series can be described thus: Binding affinity to His6-tagged human BRD9 (L14 to Q134 residues) expressed in Escherichia coli BL21(DE3) assessed as change in melting temperature at 200 uM by SYPRO orange dye based fluorescence assay.

Series [3] has as its target Histone acetyltransferase KAT2B (Homo sapiens) (UniProt Q92831). The series can be described thus: Binding affinity to His6-tagged human PCAF (G715 to D831 residues) expressed in Escherichia coli BL21(DE3) assessed as change in melting temperature at 200 uM by SYPRO orange dye based fluorescence assay.
In series [4] the test system is CWR22R. The series can be described thus: Antitumor activity against human 22Rv1 cells xenografted in C.B-17/IcrHsd-Prkdc scid mouse assessed as tumor growth inhibition at 50 mg/kg, ip administered 5 times per week relative to control. The format is functional. Conditions: 22Rv1, ip, read-out: TGI.
In a further series the test system is HT-29. The series can be described thus: Antiproliferative activity against human HT-29 cells treated at 12 hrs post cell seeding measured at 72 to 144 hrs post cell seeding by Cell-Titer Glo assay. The class given is functional, cell-based.
Series [5] addresses T1, Bromodomain-containing protein 4. The series can be described thus: Binding affinity to His6-tagged human BRD4 bromodomain-1 (N44 to E168 residues) expressed in Escherichia coli BL21(DE3) by ITC. (In general: ITC needs no label: the signal is the heat of the interaction.)
The subject of the next series is Hs-578T. The series can be described thus: Antiproliferative activity against human Hs578T cells treated at 12 hrs post cell seeding measured at 72 to 144 hrs post cell seeding by Cell-Titer Glo assay. The class given is functional, cell-based.
For series [6], the species on record is Homo sapiens. The series can be described thus: Inhibition of BET bromodomain in human 22Rv1 cells assessed as full length AR protein level at 4 uM after 48 hrs by Western blot assay (reference value: 1). The format is cell-based.
Series [7] can be described thus: Half life in Sprague-Dawley rat at 10 mg/kg, po administered as single dose. The format is ADME, organism-based. Conditions: in vivo.
For series [8], the species on record is Homo sapiens. The series can be described thus: Inhibition of BET bromodomain in human 22Rv1 cells assessed as AR-varient protein level at 4 uM after 48 hrs by Western blot assay (reference value: 1). The class given is cell-based. For orientation: In western blotting, separated proteins are transferred to a membrane and probed.
For another series, the system named is A549. The series can be described thus: Antiproliferative activity against human A549 cells treated at 12 hrs post cell seeding measured at 72 to 144 hrs post cell seeding by Cell-Titer Glo assay. The class given is functional, cell-based.
For series [9], the species on record is Homo sapiens. The series can be described thus: Inhibition of BET bromodomain in human LNCAP cells assessed as reduction in ERG mRNA level at 1 uM after 48 hrs by qPCR assay. The class given is cell-based.
For series [10], the species on record is Homo sapiens. The series can be described thus: Inhibition of BET bromodomain in human LNCAP cells assessed as reduction in c-Myc mRNA level at 1 uM after 48 hrs by qPCR assay. The format is cell-based. In general terms: Quantitative PCR measures a nucleic acid by following its amplification.
Series [11] is described as follows: AUC (0 to infinity) in Sprague-Dawley rat at 2 mg/kg, iv administered as single dose. The class given is ADME, organism-based. Also on record: dose 2 mg/kg, route intravenous, time infinity. The note with it: in vivo.
The subject of another series is HeLa. The series can be described thus: Antiproliferative activity against human HeLa cells treated at 12 hrs post cell seeding measured at 72 to 144 hrs post cell seeding by Cell-Titer Glo assay. The format is functional, cell-based.
For another series, the system named is Mus musculus. The series can be described thus: Toxicity in C.B-17/IcrHsd-Prkdc scid mouse xenografted with human 22Rv1 cells assessed as body weight loss at 50 mg/kg, ip administered 5 times per week measured during compound dosing. The note with it: in vivo. The format is organism-based.
The species named for series [12] is Homo sapiens. The series can be described thus: Inhibition of BET bromodomain in human LNCAP cells assessed as reduction in TMPRSS2 mRNA level at 1 uM after 48 hrs by qPCR assay. The format is cell-based.
The test system of the next series is MV4-11. The series can be described thus: Antiproliferative activity against human MV4-11 cells treated at 12 hrs post cell seeding measured at 72 to 144 hrs post cell seeding by Cell-Titer Glo assay. The format is functional, cell-based.
The species entered for series [13] is Homo sapiens. The series can be described thus: Inhibition of BET bromodomain in human 22Rv1 cells assessed as AR-varient protein level at 1 uM after 48 hrs by Western blot assay (reference value: 1). The format is cell-based.
Another series concerns U2OS. The series can be described thus: Antiproliferative activity against human U2OS cells treated at 12 hrs post cell seeding measured at 72 to 144 hrs post cell seeding by Cell-Titer Glo assay. The format is functional, cell-based.
Another series relates to HFL1. The series can be described thus: Antiproliferative activity against HFL1 cells treated at 12 hrs post cell seeding measured at 72 to 144 hrs post cell seeding by Cell-Titer Glo assay. The format is cell-based. Conditions: Homo sapiens.
A short description of series [14]: Oral bioavailability in Sprague-Dawley rat at 10 mg/kg administered as single dose. The class given is ADME, organism-based. The note with it: in vivo.
Another series deals with MCF7. The series can be described thus: Antiproliferative activity against human MCF7 cells treated at 12 hrs post cell seeding measured at 72 to 144 hrs post cell seeding by Cell-Titer Glo assay. The class given is functional, cell-based.
Series [15] concerns VCaP. The series can be described thus: Inhibition of BET bromodomain in human VCaP cells assessed as reduction in TMPRSS2 mRNA level at 1 uM after 48 hrs by qPCR assay. The class given is cell-based.
Series [16] has as its system CWR22R. The series can be described thus: Inhibition of colony formation in human 22Rv1 cells after 14 days by crystal violet staining based assay. The class given is functional, cell-based.
The next series relates to PC-3. The series can be described thus: Antiproliferative activity against human PC3 cells treated at 12 hrs post cell seeding measured at 72 to 144 hrs post cell seeding by Cell-Titer Glo assay. The format is functional, cell-based.
The test system of series [17] is VCaP. The series can be described thus: Inhibition of BET bromodomain in human VCaP cells assessed as reduction in c-Myc mRNA level at 1 uM after 48 hrs by qPCR assay. The class given is cell-based.
Another series deals with DU-145. The series can be described thus: Antiproliferative activity against human DU145 cells treated at 12 hrs post cell seeding measured at 72 to 144 hrs post cell seeding by Cell-Titer Glo assay. The class given is functional, cell-based.
The test system of the next series is NCI-H1975. The series can be described thus: Antiproliferative activity against human NCI-H1975 cells treated at 12 hrs post cell seeding measured at 72 to 144 hrs post cell seeding by Cell-Titer Glo assay. The format is functional, cell-based.
Series [18] deals with CWR22R. The series can be described thus: Antimigratory activity against human 22Rv1 cells assessed as inhibition of wound closure at 1 uM after 48 hrs by bright field microscopic method. The format is functional, cell-based.
Series [19] is described as follows: Volume of distribution at steady state in Sprague-Dawley rat at 2 mg/kg, iv administered as single dose. The note with it: in vivo, read-out: Vdss. The class given is ADME, organism-based.

Molecules are shown by their SMILES. pIC50, pKd: −log10 of the molar value. Calls of active or inactive are those of the source. No cut-off for these calls is given here.

Sequence of Histone acetyltransferase KAT2B (Homo sapiens) (Q92831 whole entry, looked up, the tested form may be a part): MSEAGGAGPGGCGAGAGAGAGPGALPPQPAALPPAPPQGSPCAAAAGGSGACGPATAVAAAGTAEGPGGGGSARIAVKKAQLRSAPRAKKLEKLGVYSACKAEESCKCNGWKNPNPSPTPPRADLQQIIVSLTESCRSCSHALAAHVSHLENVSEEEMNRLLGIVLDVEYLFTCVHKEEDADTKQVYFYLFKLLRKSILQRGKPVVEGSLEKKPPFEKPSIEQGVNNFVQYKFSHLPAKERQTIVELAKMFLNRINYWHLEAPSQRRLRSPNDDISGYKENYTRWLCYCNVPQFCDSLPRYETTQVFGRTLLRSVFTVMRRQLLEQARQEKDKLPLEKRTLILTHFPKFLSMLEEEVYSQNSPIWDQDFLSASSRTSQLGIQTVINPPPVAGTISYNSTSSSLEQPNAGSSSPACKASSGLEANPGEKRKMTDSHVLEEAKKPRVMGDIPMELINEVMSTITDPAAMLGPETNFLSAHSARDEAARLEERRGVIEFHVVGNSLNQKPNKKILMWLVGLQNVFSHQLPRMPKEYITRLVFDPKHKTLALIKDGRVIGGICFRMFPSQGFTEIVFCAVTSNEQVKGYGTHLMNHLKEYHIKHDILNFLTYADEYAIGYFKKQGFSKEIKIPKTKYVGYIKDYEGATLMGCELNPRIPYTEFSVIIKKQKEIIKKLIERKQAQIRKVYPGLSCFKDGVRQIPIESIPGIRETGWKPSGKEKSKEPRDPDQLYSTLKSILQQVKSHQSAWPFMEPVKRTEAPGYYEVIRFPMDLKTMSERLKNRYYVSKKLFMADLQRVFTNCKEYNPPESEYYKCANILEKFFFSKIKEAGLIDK

As usually defined, the ΔTm is the change in melting temperature against a reference sample. As to `Cc1noc(C)c1-c1ccc2c(c1)O[C@H](CC1CC1)C(=O)N2CCN1CCOCC1`, the ΔTm in [1] was 6.9 °C; in series [2] it was 5.1 °C; in series [3], 0 °C.

Broadly, the pIC50 is −log10 of the IC50, conventionally taken in molar units. A higher pIC50 goes with a small IC50. In general, pKd refers to −log10 of the Kd, conventionally taken in molar units. What is called half-life is how long it takes for the measured level to halve. Low readings indicate fast loss, high ones slow loss. The AUC(0-inf) is total exposure, with the tail of the curve extrapolated. Broadly, the bioavailability is dose-corrected exposure relative to a reference, in per cent. A lower bioavailability goes with poor availability. In the case of `Cc1noc(C)c1-c1ccc2c(c1)O[C@H](CC1CC1)C(=O)N2`, the inhibition in vivo at 50 mg/kg in the series with CWR22R [4] was 70%. The pIC50 in the series with HT-29 is 5.86; in the series with Hs-578T, 5.72; in the series on A549, 5.27; with HeLa, 4.73; in the series with MV4-11, 6.24; with U2OS, 4.95. Moreover, the pIC50 is 4.70 in the series on HFL1; 5.74 with MCF7; 4.97 in the series on PC-3; 5.09 with DU-145; 5.01 in the series with NCI-H1975. This molecule also had a negative logarithm of the Kd (pKd) in series [5] of 6.96. Moreover, the values for the fold change (FC) in the series listed under Homo sapiens [6], in the series filed under Homo sapiens [8] and in the series filed under Homo sapiens [13] were 0.4, 0.45 and 0.83, respectively. The half-life in series [7] was 42 min. Moreover, the inhibition result in the series filed under Homo sapiens [9], in the series filed under Homo sapiens [10], in the series listed under Homo sapiens [12], in the series on VCaP [15], with VCaP [17] and with CWR22R [18] was “Active” each time. The molecule also came in with a total exposure AUC(0-inf) in series [11] of 997 ng·h/mL. Further, the values for the shift in melting temperature (ΔTm) in series [1], in series [2] and in series [3] were 8.4 °C, 3.6 °C and 0 °C, respectively. The Activity result in the series on Mus musculus is listed as “Non-Toxic”. The molecule also had a bioavailability in series [14] of 29.3%. Besides, in the series on CWR22R [16], the inhibition result was “Dose-dependent effect”. In addition, in series [19], the Vd worked out at 1.6 L/kg.

For the molecule `Cc1noc(C)c1-c1ccc2c(c1)O[C@H](CC(C)C)C(=O)N2`, the pIC50 in the series with HT-29 is 6.22; in the series with Hs-578T, 5.95; in the series with A549, 5.22; in the series on HeLa, 4.39; with MV4-11 it was 6.77; in the series on U2OS, 4.89. Further, the pIC50 is 4.52 in the series with HFL1; 5.94 in the series on MCF7; 4.98 with PC-3; 5.13 with DU-145; 4.48 in the series with NCI-H1975. In [5], this molecule showed a pKd of 7.09. Also, the ΔTm turned out to be 9.3 °C in [1], 2.4 °C in series [2] and 0 °C in series [3].

For the molecule `Cc1noc(C)c1-c1ccc2c(c1)OC(c1ccccc1F)C(=O)N2` (configuration not stated), the ΔTm was 7.5 °C in [1], -0.3 °C in series [2] and 0 °C in series [3].

For `CCN1C(=O)[C@@H](CC2CC2)Oc2cc(-c3c(C)noc3C)ccc21`, in series [5], the pKd is 6.48. Besides, the ΔTm in [1] is 6.9 °C; in series [2], 3.7 °C; in [3], 0 °C.

Turning to `Cc1noc(C)c1-c1ccc2c(c1)OC(c1ccccc1)C(=O)N2` (configuration not stated), the values for the ΔTm in [1], in [2] and in [3] were 7.6 °C, 2.4 °C and 0.3 °C, respectively.

With `Cc1sc2c(c1C)C(c1ccc(Cl)cc1)=N[C@@H](CC(=O)OC(C)(C)C)c1nnc(C)n1-2`, the pIC50 is 7.70 with HT-29; 6.80 in the series with Hs-578T; 5.78 in the series with A549; 5.42 with HeLa; 6.80 in the series with MV4-11; 5.79 in the series with U2OS. Moreover, the pIC50 is 6.54 with HFL1; 6.70 in the series on MCF7; 5.52 in the series with PC-3; 5.60 in the series with DU-145; 5.91 with NCI-H1975. Also, the ΔTm is 11.1 °C in series [1] and -2.4 °C in series [2].
